Test results from publication PMC9950431, “A bivalent remipede toxin promotes calcium release via ryanodine receptor activation” (Nature Communications, 2023).

Legend:
[1] = tested on: NaV1.7; assay: FLIPR Ca2+ assay, inhibition of endogenous NaV1.7; assay type: cell-based, human; settings: for Ca2+ response relative to control response: 3 µM Xt3a pre-treatment, veratridine 4 μM/OD1 300 nM, over 300 s
Procedure: (§1) SH-SY5Y human neuroblastoma cells (European Collection of Authenticated Cell Culture, Sigma Aldrich, 94030304-1VL) were cultured in RPMI media (ThermoFisher Scientific, Scoresby, Australia) supplemented with 15% foetal bovine serum and L-glutamine (1 mM) and passaged at approximately 80% confluency with TrypLE Express (Thermo Fisher, Australia). For fluorescence imaging, cells were plated on CellBIND (Corning) 384-well black-walled imaging plates at a density of 20,000–30,000 cells/well in complete media and cultured for 48 h at 37 °C/5% CO2.
(§2) Briefly, SH-SY5Y cells were loaded with Calcium 4 no-wash dye (Molecular Devices) diluted in physiological salt solution (composition in mM: NaCl 140, D-glucose 11.5, KCl 5.9, MgCl2 1.4, NaH2PO4 1.2, NaHCO3 5, CaCl2 1.8, HEPES 10) for 30 min at 37 °C. A two-addition FLIPR^Tetra (Molecular Devices) protocol using the following settings was used to measure fluorescence responses: excitation 470–495 nm; emission 515–575 nm; excitation intensity 80%; excitation duration 0.8 s; gain 140; read interval 1/s; read number 300/addition. Responses mediated via endogenously expressed ion channels were elicited by addition of: choline (30 μM)/PNU-120596 (10 μM) for α7 nAChR-mediated responses; nicotine (30 μM) for α3β2/α3β4 nAChR-mediated responses; KCl (90 mM)/CaCl2 (5 mM) for CaV1.3-mediated responses; KCl (90 mM)/CaCl2 (5 mM) + nifedipine (10 μM) for CaV2.2-mediated responses; vertridine (70 μM) for NaV1.2-mediated responses; and veratridine (4 μM)/OD1 (300 nM) for NaV1.7-mediated responses. Raw fluorescence readings were converted to response over baseline using the analysis tool Screenworks 3.1.1.4 (Molecular Devices) and were expressed relative to the maximum increase in fluorescence of control responses and plotted using GraphPad Prism 9.3.1.
(§3) In the cell-based FLIPR assays statistical analysis was performed using GraphPad Prism 9.3.1. Statistical significance was defined as p < 0.05, and determined by one-sample t-test assessing difference to the control value of 100%. In α7 nAChR, α3-containing nAChR, CaV1.3, CaV2.2, NaV1.2 and NaV1.7 channels (Supplementary Fig. 5B), with distribution (t) and degrees of freedom (df) being: t = 0.9683, df = 2 (α7); t = 1.338, df = 2 (α3); t = 1.775, df = 2 (NaV1.2); t = 1.478

[2] = tested on: sarcoplasmic reticulum (SR) in mouse extensor digitorum longus (EDL) fibers; assay: SR Ca2+ leak in mechanically-skinned EDL muscle fibers (total SR Ca2+ content, [CaT]SR, after 1 min leak); assay type: cell-based, mouse (C57/Bl6)
Source text: All experiments were approved by The University of Queensland Animal Ethics Committees. Male and female C57/Bl6 2–6-month-old mice were sacrificed by asphyxiation via CO2 exposure and the EDL muscles were rapidly excised. The EDL was pinned at resting length in a petri dish lined with Sylgard 184 (Dow Corning, Midland, MI) and immersed in paraffin oil (Ajax Chemicals, Sydney, Australia). Segments of individual fibers were mechanically skinned using jeweler’s forceps and pinned out unstretched under oil[37]–[39]. The skinned fiber was then mounted at 120% of resting length on a force transducer (Myotronic UG, Heidelberg, Germany) before transfer to a 2-ml Perspex bath containing standard K^+-based solution that broadly mimics the intracellular milieu. […] All chemicals were purchased from Sigma-Aldrich (St Louis, MO, USA) unless specified otherwise.
Variations of the standard solution were prepared. To deplete the caffeine releasable Ca^2+ (“full release solution”), 30 mM caffeine was added, [Mg^2+] was lowered to 0.05 mM (total Mg^2+ of 2.1 mM) and free EGTA was adjusted to 0.5 mM (pCa 8.5) to chelate released Ca^2+. To measure the maximum force produced by the skinned fiber, all HDTA was replaced by EGTA (relaxing solution) or CaEGTA (maximum Ca^2+ activating solution). The relaxing solution contained 50 mM EGTA and no added Ca^2+ (pCa > 9) and the maximum Ca^2+-activating solution contained 49.5 mM Ca^2+ (pCa 4.7), with total Mg^2+ of 10.3 and 8.1 mM, respectively, to maintain the free [Mg^2+] at 1 mM. A “leak solution” was also prepared, where [Mg^2+] set at 0.1 mM (total Mg^2+ of 3.4 mM) to increase the PO of RyR and with 2 mM EGTA (pCa ~8.5) to chelate leaky Ca^2+ from the SR. […] The BAPTA solution used to pre-equilibrate fibers before lysing was similar to the standard K-HDTA solution but EGTA was replaced with 0.1–1.6 mM BAPTA[37],[39].
The skinned fiber was then equilibrated for 20 s in a solution with a set [BAPTA] before being placed in a freshly triturated emulsion of Triton X-100 in paraffin oil (TX–oil) (10% v/v). The Ca^2+ released upon the membrane lysing rapidly binds to the known amount of BAPTA present within the fiber and to other sites, predominantly troponin C (TnC). The pre-equilibrating [BAPTA] was chosen such that the fiber produced a finite, non-maximal force response upon lysis. Pre-treatment of the fiber with “full release solution” allowed the non-SR Ca^2+ content of the skinned fiber to be assayed. The total amount of Ca^2+ present in the fiber could be calculated from the [BAPTA] in the equilibration solution and the magnitude of the force response. Data are presented as mean ± SD, with n denoting the number of fibers examined. Statistical significance (p < 0.05) was determined with One-way ANOVA.

[3] = tested on: CaV2.2; assay: FLIPR Ca2+ assay, inhibition of endogenous CaV2.2; assay type: cell-based, human; settings: for Ca2+ response relative to control response: 3 µM Xt3a pre-treatment, KCl 90 mM/CaCl2 5 mM + nifedipine 10 μM, over 300 s
Procedure: as §1, §2, §3

[4] = tested on: NaV1.2; assay: FLIPR Ca2+ assay, inhibition of endogenous NaV1.2; assay type: cell-based, human; settings: for Ca2+ response relative to control response: 3 µM Xt3a pre-treatment, veratridine 70 μM, over 300 s
Procedure: as §1, §2, §3

## φ-Xibalbin3-Xt3a
[1]; replicate 1
  Ca2+ response relative to control response: 99.4493%
[1]; replicate 2
  Ca2+ response relative to control response: 100.583%
[1]; replicate 3
  Ca2+ response relative to control response: 102.164%
[1]; Xt3a 3 µM
  inhibition of Ca2+ responses: did not inhibit Ca^2+ responses
[2]; 10 nM
  efficiency to increase SR Ca2+ leakage (order): Xt3a > Xt3a-D1 ~ IpTxA > Xt3a-D2
[2]; 10 nM peptide in leak solution, 1 min leak, mean ± SD, control leak 18 ± 7%
  depletion of [CaT]SR: 76 ± 5%
[2]; 10 nM peptide, 1 min leak, relative to Pre, fiber 2 of column
  Relative amount of total Ca2+ left in the SR ([CaT]SR): 20.6
[2]; 10 nM peptide, 1 min leak, relative to Pre, fiber 3 of column
  Relative amount of total Ca2+ left in the SR ([CaT]SR): 24.9
[2]; 10 nM peptide, 1 min leak, relative to Pre, fiber 4 of column
  Relative amount of total Ca2+ left in the SR ([CaT]SR): 22.9
[2]; 10 nM peptide, 1 min leak, relative to Pre, fiber 5 of column
  Relative amount of total Ca2+ left in the SR ([CaT]SR): 23.5
[2]; 10 nM peptide, 1 min leak, relative to Pre, fiber 6 of column
  Relative amount of total Ca2+ left in the SR ([CaT]SR): 22.7
[2]; 10 nM peptide, 1 min leak, relative to Pre, fiber 7 of column
  Relative amount of total Ca2+ left in the SR ([CaT]SR): 27.4
[2]; 10 nM peptide, 1 min leak, relative to Pre, fiber 8 of column
  Relative amount of total Ca2+ left in the SR ([CaT]SR): 27.5
[2]; 10 nM peptide, 1 min leak, relative to Pre, fiber 9 of column
  Relative amount of total Ca2+ left in the SR ([CaT]SR): 25.7
[2]; 10 nM peptide, 1 min leak, relative to Pre, fiber 10 of column
  Relative amount of total Ca2+ left in the SR ([CaT]SR): 30.9
[2]; 10 nM peptide, 1 min leak, relative to Pre, fiber 11 of column
  Relative amount of total Ca2+ left in the SR ([CaT]SR): 32.9
[2]; 10 nM peptide, 1 min leak, relative to Pre, fiber 12 of column
  Relative amount of total Ca2+ left in the SR ([CaT]SR): 22.4
[2]; 10 nM peptide, 1 min leak, relative to Pre, fiber 13 of column
  Relative amount of total Ca2+ left in the SR ([CaT]SR): 13.3
[2]; 10 nM peptide, 1 min leak, relative to Pre, mean (n = 13 Xt3a, n = 10 others)
  Relative amount of total Ca2+ left in the SR ([CaT]SR), mean: 24.4
[2]; 10 nM peptide, 1 min leak, relative to [CaT]SR before the leak (Pre), fiber 1 of column
  Relative amount of total Ca2+ left in the SR ([CaT]SR): 21.9
[3]; replicate 1
  Ca2+ response relative to control response: 99.2207%
[3]; replicate 2
  Ca2+ response relative to control response: 92.2928%
[3]; replicate 3
  Ca2+ response relative to control response: 79.9392%
[3]; Xt3a 3 µM
  inhibition of Ca2+ responses: did not inhibit Ca^2+ responses
[4]; replicate 1
  Ca2+ response relative to control response: 91.9349%
[4]; replicate 2
  Ca2+ response relative to control response: 100.571%
[4]; replicate 3
  Ca2+ response relative to control response: 88.9832%
[4]; Xt3a 3 µM
  inhibition of Ca2+ responses: did not inhibit Ca^2+ responses
